Assay results published in ChEMBL document CHEMBL5584241, “Discovery of new anti-diabetic potential agents based on paracetamol incorporating sulfa-drugs: Design, synthesis, α-amylase, and α-glucosidase inhibitors with molecular docking simulation” (Eur J Med Chem, 2024).
pIC50: −log10 of the molar value.

Legend:
[1] = Inhibition of alpha-glucosidase (unknown origin) using p-nitrophenyl-alpha-D-glucopyranoside as substrate incubated for 15 to 25 mins by spectrophotometric analysis; parameters: species or system Homo sapiens
Homo sapiens = species on record: Homo sapiens; experiment: Inhibition of alpha-glucosidase (unknown origin) at 100 ug/ml using p-nitrophenyl-alpha-D-glucopyranoside as substrate incubated for 15 to 25 mins by spectrophotometric analysis relative to control; conditions: dose 100.0 µg/ml, time 15-25 min
Alpha amylase = target: T1, Alpha amylase (Homo sapiens, UniProt P0DUB6); experiment: Inhibition of alpha-amylase (unknown origin); type: protein assay
T1 sequence (P0DUB6 whole entry): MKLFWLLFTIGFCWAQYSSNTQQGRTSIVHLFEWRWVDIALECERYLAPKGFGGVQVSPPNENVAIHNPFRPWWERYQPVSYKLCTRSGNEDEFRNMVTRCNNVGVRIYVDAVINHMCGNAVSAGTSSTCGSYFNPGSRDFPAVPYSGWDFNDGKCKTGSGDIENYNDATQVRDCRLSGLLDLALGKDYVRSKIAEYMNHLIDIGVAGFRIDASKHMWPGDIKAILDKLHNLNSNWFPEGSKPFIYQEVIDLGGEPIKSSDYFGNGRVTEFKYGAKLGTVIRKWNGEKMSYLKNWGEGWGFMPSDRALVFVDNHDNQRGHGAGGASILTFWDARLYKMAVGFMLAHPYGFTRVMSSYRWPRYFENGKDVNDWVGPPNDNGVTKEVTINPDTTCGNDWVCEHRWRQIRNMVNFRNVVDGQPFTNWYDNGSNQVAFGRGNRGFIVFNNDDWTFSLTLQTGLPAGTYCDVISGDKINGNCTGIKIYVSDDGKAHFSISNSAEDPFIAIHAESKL

[2] = Inhibition of alpha-glucosidase (unknown origin); parameters: species or system Homo sapiens
Maltase-glucoamylase = Maltase-glucoamylase (Homo sapiens, UniProt O43451); experiment: Inhibition of intestinal alpha-glucosidase (unknown origin) using p-nitrophenyl-alpha-D-glucopyranoside as substrate preincubated for 5 mins followed by substrate addition and measured after 5 mins by spectrophotometric analysis
Maltase-glucoamylase, sequence (O43451 whole entry): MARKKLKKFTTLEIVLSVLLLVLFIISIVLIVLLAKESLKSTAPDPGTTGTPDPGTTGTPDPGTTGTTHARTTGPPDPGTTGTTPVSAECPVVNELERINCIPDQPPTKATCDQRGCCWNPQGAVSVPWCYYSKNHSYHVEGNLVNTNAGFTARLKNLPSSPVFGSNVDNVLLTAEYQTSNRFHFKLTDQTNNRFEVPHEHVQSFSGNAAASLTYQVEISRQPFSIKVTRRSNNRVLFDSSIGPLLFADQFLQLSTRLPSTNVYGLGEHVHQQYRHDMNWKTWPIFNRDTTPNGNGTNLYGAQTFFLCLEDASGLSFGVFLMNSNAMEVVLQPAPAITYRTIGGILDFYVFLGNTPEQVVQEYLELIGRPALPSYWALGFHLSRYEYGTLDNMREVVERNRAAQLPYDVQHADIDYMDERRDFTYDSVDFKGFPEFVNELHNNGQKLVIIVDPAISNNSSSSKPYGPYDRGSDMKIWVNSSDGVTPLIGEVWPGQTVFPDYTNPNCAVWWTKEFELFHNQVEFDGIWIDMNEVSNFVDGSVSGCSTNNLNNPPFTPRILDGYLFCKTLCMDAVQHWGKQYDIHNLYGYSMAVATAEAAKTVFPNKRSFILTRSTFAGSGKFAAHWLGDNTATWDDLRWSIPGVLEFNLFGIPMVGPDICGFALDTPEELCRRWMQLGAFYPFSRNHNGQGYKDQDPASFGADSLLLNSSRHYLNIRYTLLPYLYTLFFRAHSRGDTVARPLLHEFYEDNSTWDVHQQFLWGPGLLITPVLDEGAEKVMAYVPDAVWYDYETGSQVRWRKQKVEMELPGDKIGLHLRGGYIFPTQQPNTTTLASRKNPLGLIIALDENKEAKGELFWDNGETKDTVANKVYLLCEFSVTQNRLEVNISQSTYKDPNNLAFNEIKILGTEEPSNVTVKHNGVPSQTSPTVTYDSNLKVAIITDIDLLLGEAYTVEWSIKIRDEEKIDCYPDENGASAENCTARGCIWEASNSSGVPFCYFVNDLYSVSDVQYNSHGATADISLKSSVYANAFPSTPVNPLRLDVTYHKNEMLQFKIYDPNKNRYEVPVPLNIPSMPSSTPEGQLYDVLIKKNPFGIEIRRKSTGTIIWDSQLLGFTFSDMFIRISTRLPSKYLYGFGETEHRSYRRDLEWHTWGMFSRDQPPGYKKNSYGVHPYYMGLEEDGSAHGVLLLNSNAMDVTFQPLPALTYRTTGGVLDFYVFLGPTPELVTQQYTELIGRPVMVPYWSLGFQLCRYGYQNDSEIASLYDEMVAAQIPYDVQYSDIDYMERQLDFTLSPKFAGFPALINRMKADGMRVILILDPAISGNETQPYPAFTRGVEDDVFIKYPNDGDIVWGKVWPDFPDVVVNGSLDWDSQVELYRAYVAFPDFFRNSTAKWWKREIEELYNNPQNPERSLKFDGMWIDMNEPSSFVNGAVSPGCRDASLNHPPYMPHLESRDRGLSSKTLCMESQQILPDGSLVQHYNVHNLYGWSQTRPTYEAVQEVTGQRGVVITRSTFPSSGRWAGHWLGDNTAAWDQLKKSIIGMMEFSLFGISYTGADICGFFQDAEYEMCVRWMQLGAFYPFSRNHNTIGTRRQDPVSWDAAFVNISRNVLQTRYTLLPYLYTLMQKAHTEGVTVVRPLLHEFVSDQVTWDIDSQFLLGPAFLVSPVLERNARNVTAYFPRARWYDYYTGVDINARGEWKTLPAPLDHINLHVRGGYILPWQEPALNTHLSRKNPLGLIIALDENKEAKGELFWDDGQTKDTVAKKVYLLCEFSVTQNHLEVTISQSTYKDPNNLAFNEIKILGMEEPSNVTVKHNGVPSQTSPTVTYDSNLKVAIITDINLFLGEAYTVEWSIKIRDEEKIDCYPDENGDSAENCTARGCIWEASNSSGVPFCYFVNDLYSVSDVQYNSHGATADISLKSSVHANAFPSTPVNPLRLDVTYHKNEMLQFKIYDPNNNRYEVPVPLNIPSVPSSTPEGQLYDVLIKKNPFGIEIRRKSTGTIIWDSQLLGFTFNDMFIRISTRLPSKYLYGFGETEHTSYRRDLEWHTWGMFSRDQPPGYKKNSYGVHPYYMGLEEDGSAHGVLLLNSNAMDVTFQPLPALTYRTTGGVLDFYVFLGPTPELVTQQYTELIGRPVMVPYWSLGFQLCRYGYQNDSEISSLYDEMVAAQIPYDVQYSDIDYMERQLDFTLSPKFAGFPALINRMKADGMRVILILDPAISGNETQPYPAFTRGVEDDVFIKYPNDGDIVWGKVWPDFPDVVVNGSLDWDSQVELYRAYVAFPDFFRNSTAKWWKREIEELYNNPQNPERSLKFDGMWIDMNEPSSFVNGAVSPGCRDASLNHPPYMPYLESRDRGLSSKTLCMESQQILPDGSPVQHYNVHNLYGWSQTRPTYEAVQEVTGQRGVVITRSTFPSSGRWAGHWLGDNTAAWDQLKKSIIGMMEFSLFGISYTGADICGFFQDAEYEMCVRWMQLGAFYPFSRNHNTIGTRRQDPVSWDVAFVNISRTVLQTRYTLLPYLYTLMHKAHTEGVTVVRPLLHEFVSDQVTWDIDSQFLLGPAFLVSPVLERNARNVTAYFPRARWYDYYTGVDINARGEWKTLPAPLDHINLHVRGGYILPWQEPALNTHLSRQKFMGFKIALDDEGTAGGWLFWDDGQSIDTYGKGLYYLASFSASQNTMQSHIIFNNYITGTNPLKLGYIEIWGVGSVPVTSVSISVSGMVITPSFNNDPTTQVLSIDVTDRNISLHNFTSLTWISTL

Row | SMILES | pIC50 [1] | inhibition (Homo sapiens) [%] | IC50 (Alpha amylase) [µM] | pIC50 [2] | pIC50 (Maltase-glucoamylase)
1 | CC(=O)Nc1ccc(O)c(/N=N/c2ccc(S(=O)(=O)Nc3cc(C)on3)cc2)c1 | 4.74 | 92.6 |  |  | 
2 | CC(=O)Nc1ccc(O)c(/N=N/c2ccc(S(=O)(=O)Nc3ncccn3)cc2)c1 | 5.86 | 95.7 |  |  | 
3 | CC(=O)Nc1ccc(O)c(/N=N/c2ccc(S(N)(=O)=O)cc2)c1 | 4.96 | 93.6 |  |  | 
4 | CC(=O)Nc1ccc(O)c(/N=N/c2ccc(S(=O)(=O)Nc3ccc(Cl)nn3)cc2)c1 | 4.72 | 94.2 |  |  | 
5 | COc1ccccc1S(=O)(=O)Nc1nnc(-c2ccc([N+](=O)[O-])cc2)s1 |  |  | 2.4 |  | 
6 | CC(=O)Nc1ccc(O)c(/N=N/c2ccc(S(=O)(=O)Nc3noc(C)c3C)cc2)c1 | 5.53 | 95.6 |  |  | 
7 | O=[N+]([O-])c1ccc(-c2nnc(NS(=O)(=O)c3ccc(Cl)c(Cl)c3)s2)cc1 |  |  |  | 5.26 | 
8 | C[C@H]1O[C@H](O[C@H]2[C@H](O)[C@@H](O)[C@@H](O[C@H]3[C@H](O)[C@@H](O)C(O)O[C@@H]3CO)O[C@@H]2CO)[C@H](O)[C@@H](O)[C@@H]1N[C@H]1C=C(CO)[C@@H](O)[C@H](O)[C@H]1O (stereo partly specified) [ACARBOSE] | 5.91 | 95.8 |  |  | 
9 | CC(=O)Nc1ccc(O)c(/N=N/c2ccc(S(=O)(=O)NC(=N)N)cc2)c1 | 4.02 | 91 |  |  | 
10 | CC(=O)Nc1ccc(O)c(/N=N/c2ccc(S(=O)(=O)Nc3nc(C)cc(C)n3)cc2)c1 | 5.29 | 94.1 |  |  | 
11 | CC(=O)Nc1ccc(O)c(/N=N/c2ccc(S(=O)(=O)Nc3nccs3)cc2)c1 | 4.36 | 93.4 |  |  | 
12 | O=S(=O)(NCCc1c[nH]c2ccccc12)c1cc(F)ccc1Cl |  |  |  |  | 5.80
